Source: paper PMC8206213, “An L-2-hydroxyglutarate biosensor based on specific transcriptional regulator LhgR” (Nature Communications, 2021)
Values joined by “and” are separate entries in the source; they are usually repeats but may differ in a detail not shown here. Equal entries are not always repeated.

Test: LHGFR expressed in E. coli BL21(DE3), response to exogenous L-2-HG (time course and dose-response)
Format: cell-based
Conditions: Fig. 5a
Procedure: To characterize the sensitivity and specificity of LHGFR expressed in E. coli BL21(DE3), 90 μL cell suspensions following 8 h carbon starvation were mixed with 10 μL increasing concentrations of L-2-HG or other compounds, and then added into a black 96-well plate (total 100 μL/per well), the fluorescence intensities were determined using an EnSight microplate reader (PerkinElmer, USA) and the following instrument settings: excitation at 430 nm, emission at 485 nm (mTFP) and 528 nm (Venus), time intervals of 5 min, the temperature at 37 °C, and shake at 180 rpm.

With O=C(O)CC[C@H](O)C(=O)O [L-2-HG, L-2-Hydroxyglutarate] the Emission ratio (100 μM L-2-HG, 45 min) was 1.032 and 1.026 and 1.029, the Emission ratio (100 μM L-2-HG, 50 min) was 1.0383 and 1.034 and 1.036 and the Emission ratio (100 μM L-2-HG, 55 min) was 1.032 and 1.026 and 1.035. The Emission ratio (100 μM L-2-HG, 60 min) was 1.021 and 1.025 and 1.037, the Emission ratio (100 μM L-2-HG, 65 min) was 1.0313 and 1.027 and 1.042 and the Emission ratio (100 μM L-2-HG, 70 min) was 1.0328 and 1.039 and 1.045. The Emission ratio (100 μM L-2-HG, 75 min) was 1.033 and 1.036 and 1.056, the Emission ratio (100 μM L-2-HG, 80 min) was 1.038 and 1.023 and 1.047 and the Emission ratio (100 μM L-2-HG, 85 min) was 1.027 and 1.0315 and 1.0551. The Emission ratio (100 μM L-2-HG, 90 min) was 1.039 and 1.022 and 1.053, the Emission ratio (200 μM L-2-HG, 0 min) was 0.9917 and 0.9725 and 0.9805 and the Emission ratio (200 μM L-2-HG, 5 min) was 1.014 and 1.003 and 1.0079. The Emission ratio (200 μM L-2-HG, 10 min) was 1.023 and 1.0171 and 1.02, the Emission ratio (200 μM L-2-HG, 15 min) was 1.025 and 1.029 and 1.038 and the Emission ratio (200 μM L-2-HG, 20 min) was 1.048 and 1.05 and 1.039. For the same compound, the Emission ratio (200 μM L-2-HG, 25 min) was 1.049 and 1.058 and 1.042, the Emission ratio (200 μM L-2-HG, 30 min) was 1.046 and 1.049 and 1.051 and the Emission ratio (200 μM L-2-HG, 35 min) was 1.046 (2×) and 1.055. For the same compound, the Emission ratio (200 μM L-2-HG, 40 min) was 1.05 and 1.054 and 1.06, the Emission ratio (200 μM L-2-HG, 45 min) was 1.052 and 1.0481 and 1.064 and the Emission ratio (200 μM L-2-HG, 50 min) was 1.061 and 1.056 and 1.069. The Emission ratio (200 μM L-2-HG, 55 min) was 1.06 and 1.0497 and 1.072, the Emission ratio (200 μM L-2-HG, 60 min) was 1.062 and 1.046 and 1.073 and the Emission ratio (200 μM L-2-HG, 65 min) was 1.05 and 1.055 and 1.074. For the same compound, the Emission ratio (200 μM L-2-HG, 70 min) was 1.061 and 1.042 and 1.07, the Emission ratio (200 μM L-2-HG, 75 min) was 1.068 and 1.046 and 1.072 and the Emission ratio (200 μM L-2-HG, 80 min) was 1.063 and 1.037 and 1.071. The Emission ratio (200 μM L-2-HG, 85 min) was 1.058 and 1.051 and 1.076, the Emission ratio (200 μM L-2-HG, 90 min) was 1.065 and 1.04 and 1.07 and the Emission ratio (1 mM L-2-HG, 0 min) was 1.009 and 0.986 and 0.9798. For the same compound, the Emission ratio (1 mM L-2-HG, 5 min) was 1.043 and 1.0226 and 1.019, the Emission ratio (1 mM L-2-HG, 10 min) was 1.061 and 1.055 and 1.04 and the Emission ratio (1 mM L-2-HG, 15 min) was 1.087 and 1.082 and 1.067. For the same compound, the Emission ratio (1 mM L-2-HG, 20 min) was 1.121 and 1.102 and 1.088, the Emission ratio (1 mM L-2-HG, 25 min) was 1.134 and 1.124 and 1.105 and the Emission ratio (1 mM L-2-HG, 30 min) was 1.1596 and 1.147 and 1.142. For the same compound, the Emission ratio (1 mM L-2-HG, 35 min) was 1.168 and 1.165 and 1.162, the Emission ratio (1 mM L-2-HG, 40 min) was 1.202 and 1.191 and 1.172 and the Emission ratio (1 mM L-2-HG, 45 min) was 1.22 and 1.2003 and 1.196. For the same compound, the Emission ratio (1 mM L-2-HG, 50 min) was 1.242 and 1.221 and 1.214, the Emission ratio (1 mM L-2-HG, 55 min) was 1.254 and 1.245 and 1.226 and the Emission ratio (1 mM L-2-HG, 60 min) was 1.262 and 1.251 and 1.2291. The Emission ratio (1 mM L-2-HG, 65 min) was 1.264 and 1.242 and 1.229, the Emission ratio (1 mM L-2-HG, 70 min) was 1.261 and 1.241 and 1.2295 and the Emission ratio (1 mM L-2-HG, 75 min) was 1.265 and 1.246 and 1.229. For the same compound, the Emission ratio (1 mM L-2-HG, 80 min) was 1.265 and 1.238 and 1.24, the Emission ratio (1 mM L-2-HG, 85 min) was 1.257 and 1.244 and 1.238 and the Emission ratio (1 mM L-2-HG, 90 min) was 1.253 and 1.243 (2×). For the same compound, the Emission ratio (2 mM L-2-HG, 0 min) was 1.001 and 0.9869 and 0.9858, the Emission ratio (2 mM L-2-HG, 5 min) was 1.042 and 1.028 and 1.0185 and the Emission ratio (2 mM L-2-HG, 10 min) was 1.085 and 1.067 and 1.059. For the same compound, the Emission ratio (2 mM L-2-HG, 15 min) was 1.125 and 1.11 and 1.101, the Emission ratio (2 mM L-2-HG, 20 min) was 1.179 and 1.162 and 1.146 and the Emission ratio (2 mM L-2-HG, 25 min) was 1.241 and 1.208 and 1.197. For the same compound, the Emission ratio (2 mM L-2-HG, 30 min) was 1.288 and 1.254 and 1.257, the Emission ratio (2 mM L-2-HG, 35 min) was 1.301 and 1.278 and 1.2733 and the Emission ratio (2 mM L-2-HG, 40 min) was 1.333 and 1.31 and 1.292. For the same compound, the Emission ratio (2 mM L-2-HG, 45 min) was 1.337 and 1.329 and 1.307, the Emission ratio (2 mM L-2-HG, 50 min) was 1.347 and 1.335 and 1.324 and the Emission ratio (2 mM L-2-HG, 55 min) was 1.344 and 1.327 and 1.336. For the same compound, the Emission ratio (2 mM L-2-HG, 60 min) was 1.352 and 1.339 and 1.329, the Emission ratio (2 mM L-2-HG, 65 min) was 1.34 and 1.338 and 1.3346 and the Emission ratio (2 mM L-2-HG, 70 min) was 1.362 and 1.355 and 1.346. The Emission ratio (2 mM L-2-HG, 75 min) was 1.365 and 1.3372 and 1.347, the Emission ratio (2 mM L-2-HG, 80 min) was 1.351 and 1.344 (2×) and the Emission ratio (2 mM L-2-HG, 85 min) was 1.353 and 1.367 and 1.357. The Emission ratio (2 mM L-2-HG, 90 min) was 1.364 and 1.351 and 1.361, the Emission ratio (10 mM L-2-HG, 0 min) was 0.9626 and 0.9634 and 0.9687 and the Emission ratio (10 mM L-2-HG, 5 min) was 1.087 and 1.079 and 1.06. The Emission ratio (10 mM L-2-HG, 10 min) was 1.2277 and 1.2165 and 1.18, the Emission ratio (10 mM L-2-HG, 15 min) was 1.322 and 1.305 and 1.285 and the Emission ratio (10 mM L-2-HG, 20 min) was 1.375 and 1.367 and 1.334. The Emission ratio (10 mM L-2-HG, 25 min) was 1.391 and 1.39 and 1.353, the Emission ratio (10 mM L-2-HG, 30 min) was 1.418 and 1.395 and 1.38 and the Emission ratio (10 mM L-2-HG, 35 min) was 1.427 and 1.411 and 1.3928. For the same compound, the Emission ratio (10 mM L-2-HG, 40 min) was 1.439 and 1.431 and 1.3904, the Emission ratio (10 mM L-2-HG, 45 min) was 1.426 and 1.425 and 1.4013 and the Emission ratio (10 mM L-2-HG, 50 min) was 1.427 and 1.438 and 1.392. For the same compound, the Emission ratio (10 mM L-2-HG, 55 min) was 1.431 (2×) and 1.402, the Emission ratio (10 mM L-2-HG, 60 min) was 1.432 and 1.435 and 1.413 and the Emission ratio (10 mM L-2-HG, 65 min) was 1.425 and 1.426 and 1.404. For the same compound, the Emission ratio (10 mM L-2-HG, 70 min) was 1.4381 and 1.438 and 1.417, the Emission ratio (10 mM L-2-HG, 75 min) was 1.426 and 1.4264 and 1.415 and the Emission ratio (10 mM L-2-HG, 80 min) was 1.4478 and 1.43 and 1.416. The Emission ratio (10 mM L-2-HG, 85 min) was 1.446 and 1.432 and 1.415 and the Emission ratio (10 mM L-2-HG, 90 min) was 1.432 and 1.427 and 1.418.
